Reference: ChEMBL document CHEMBL1134001, “Novel inhibitors of the enzyme estrone sulfatase (ES)” (Bioorg Med Chem Lett, 2001)

Experiments:
Steryl-sulfatase = molecular target: T1, Steryl-sulfatase (Homo sapiens, UniProt P08842); assay: Inhibition of Estrone sulfatase
T1 sequence (P08842 whole entry): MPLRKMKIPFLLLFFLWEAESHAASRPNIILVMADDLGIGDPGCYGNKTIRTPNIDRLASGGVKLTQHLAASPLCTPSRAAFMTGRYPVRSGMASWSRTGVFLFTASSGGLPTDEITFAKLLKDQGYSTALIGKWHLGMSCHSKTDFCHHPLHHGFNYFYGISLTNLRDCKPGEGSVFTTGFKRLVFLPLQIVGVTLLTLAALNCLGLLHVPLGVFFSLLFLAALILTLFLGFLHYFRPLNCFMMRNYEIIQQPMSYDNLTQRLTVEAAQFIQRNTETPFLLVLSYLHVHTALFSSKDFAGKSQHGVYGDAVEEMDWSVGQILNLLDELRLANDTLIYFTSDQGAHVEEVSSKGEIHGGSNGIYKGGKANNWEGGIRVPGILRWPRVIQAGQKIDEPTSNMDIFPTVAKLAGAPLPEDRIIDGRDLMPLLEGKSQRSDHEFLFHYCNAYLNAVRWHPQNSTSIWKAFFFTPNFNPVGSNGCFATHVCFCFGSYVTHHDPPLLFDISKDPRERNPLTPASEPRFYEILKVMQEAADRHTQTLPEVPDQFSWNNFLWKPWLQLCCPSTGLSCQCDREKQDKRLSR

[1] = molecular target: T2, Steryl-sulfatase (Homo sapiens) (UniProt P08842); assay: Relative potency compared to EMATE against Estrone sulfatase
T2 sequence (whole entry): T1 sequence (P08842 whole entry)

[2] = molecular target: T2, Steryl-sulfatase (Homo sapiens); assay: Relative potency compared to COUMATE against Estrone sulfatase
[3] = molecular target: T2, Steryl-sulfatase (Homo sapiens)
[4] = molecular target: T2, Steryl-sulfatase (Homo sapiens); remark: listed apart in the source
Description: (§1) Relative potency against Estrone sulfatase

[5] = molecular target: T2, Steryl-sulfatase (Homo sapiens); remark: listed apart in the source
Description: as §1

SMILES | IC50 (Steryl-sulfatase) [µM] | Potency [1] | Potency [2] | Potency [3] | Potency [4] | Potency [5]
CC(=O)c1ccc(OS(N)(=O)=O)cc1 | 302 | 0.0016 | 0.0397 |  |  | 
Cc1cc(=O)oc2cc(OS(N)(=O)=O)ccc12 | 12 |  |  | 0.0417 | 1 | 
NS(=O)(=O)Oc1ccc(C(=O)/C=C/c2ccccc2)cc1 | 263 | 0.0019 | 0.0456 |  |  | 
CCCCCCC(=O)c1ccc(OS(N)(=O)=O)cc1 | 5 | 0.1 | 2.4 |  |  | 
NS(=O)(=O)Oc1ccc(C(=O)c2ccccc2)cc1 | 63 | 0.0079 | 0.191 |  |  | 
NS(=O)(=O)Oc1ccc(C=O)cc1 | 254 | 0.0019 | 0.0472 |  |  | 
CCCCC(=O)c1ccc(OS(N)(=O)=O)cc1 | 20.9 | 0.0239 | 0.574 |  |  | 
C[C@]12CC[C@@H]3c4ccc(OS(N)(=O)=O)cc4CCC3[C@@H]1CCC2=O (single isomer, unassigned) [EMATE] | 0.5 |  | 24 |  |  | 1

The next lines start with results.

IC50 (Steryl-sulfatase) [µM] | Potency [1] | Potency [2] | Potency [3] | Potency [4] | SMILES | Potency [5]
39.8 | 0.0126 | 0.301 |  |  | CCCC(=O)c1ccc(OS(N)(=O)=O)cc1 | 
5.6 | 0.0893 | 2.14 |  |  | CCCCCCCC(=O)c1ccc(OS(N)(=O)=O)cc1 | 
13 | 0.0385 | 0.923 |  |  | CCCCCCCCCC(=O)c1ccc(OS(N)(=O)=O)cc1 | 
3.4 | 0.147 | 3.53 |  |  | CCCCCCCCC(=O)c1ccc(OS(N)(=O)=O)cc1 | 
33 | 0.0152 | 0.364 |  |  | NS(=O)(=O)Oc1ccc(C(=O)Cc2ccccc2)cc1 | 
